For one experiment, the system named is platelet GPIIbIIIa. As to the kind of experiment: SFLLR-induced GPIIbIIIa activation (PAC-1 antibody, flow cytometry). In kind it is cell-based, human. As to conditions: PAC-1 antibodies. The protocol: In order to assay platelet activation by cell surface marker expression, fresh PRP is isolated from donors who have not ingested aspirin for two weeks prior to donation. PRP (40 μl) is incubated with known or suspected inhibitor in DMSO or DMSO alone for 15 min. The sample is then incubated with the indicated agonist (e.g., SFLLR) for 10 min. Following incubation of the sample with the indicated agonist, 10 μl of reaction mixture is transferred to 5 μl of phycoerythrin (PE)-conjugated AC 1.2 anti-P-selectin antibody (for assessment of P-selectin surface expression) or fluorescein isothiocyanate (FITC)-conjugated PAC-1 antibody (for assessment of GPIIbIIIa activation). PBS (500 μl) is added to the sample after a 20 min incubation and the platelets are analyzed immediately by flow cytometry. Flow cytometry can be performed using, for example, a Becton-Dickinson FACSCalibur flow cytometer or its equivalent. Fluorescent channels are set at logarithmic gain. Ten thousand particles are acquired for each sample. A 530/30 band pass filter is used for FL-1 fluorescence. A 585/42 band pass filter is used for FL-2 fluorescence. FITC is measured in the FL-1 channel and PE is measured in the FL-2 channel. Data are analyzed using, for example, CellQuest software on a Macintosh PowerPC, or their equivalents.
Compounds were also tested by flow cytometry for the inhibition of SFLLR-induced GPIIbIIIa activation and P-selectin expression. In these experiments, freshly obtained PRP was prepared from healthy volunteers who had not ingested aspirin for two weeks prior to donation. Forty μl of PRP was incubated with inhibitor in DMSO or DMSO alone for 15 min. The sample was then incubated with the indicated agonist for 10 min. Following incubation of the sample with the indicated agonist, 10 μl of reaction mixture was transferred to 5 μl of PE-conjugated AC1.2 anti-P-selectin antibody (for assessment of P-selectin surface expression) or FITC-conjugated PAC-1 antibody (for assessment of GPIIbIIIa activation). PBS (500 μl) was added to the sample after a 20 min incubation and the platelets were analyzed immediately by flow cytometry. Flow cytometry was performed using a Becton-Dickinson FACSCalibur flow cytometer. Fluorescent channels were set at logarithmic gain. Ten thousand particles were acquired for each sample. A 530/30 band pass filter was used for FL-1 fluorescence. A 585/42 band pass filter was used for FL-2 fluorescence. FITC was measured in the FL-1 channel and PE was measured in the FL-2 channel. Data were analyzed using CellQuest software on a MacIntosh PowerPC.
On the technique in general: A flow cytometer gives signals particle by particle.

The test system of experiment [1] is PGE1-induced cAMP levels in platelets. As to the kind of experiment: Augmentation of PGE1-induced cAMP levels in platelets. It is filed as cell-based, human. The note with it: no single concentration. The protocol:
One frequent target of anti-platelet agents is phosphodiesterase III (PDE III). […] The assay is performed as described by Liao et al., 1998, Eur J Pharmacol 349,107-114, incorporated herein by reference. Briefly, aliquots of PRP are exposed to increasing concentrations of the agent for 20 minutes. The PRP is then challenged with 1 μM PGE1 for 2 min The reaction is stopped by adding 10 mM EDTA, followed immediately by boiling for 2 min. The mixture is cooled to 4° C. and the precipitated protein is pelleted. cAMP content in the supernatant is quantitated using an enzyme immunoassay kit (Pharmacia-Amersham, N.J.) according to the instructions of the manufacturer.
In order to assess whether the compounds useful according to the invention might act through inhibition phosphodiesterase III, each was tested for its effect on PGE1-induced cAMP increase. Determination of platelet cAMP levels was performed as described by Liao et al., 1998, supra. Aliquots of PRP were exposed to increasing concentrations of the indicated compounds for 20 min. PRP was then challenged with 1 μM PGE1 for 2 min. The reaction was stopped with the addition of 10 mM EDTA followed immediately by boiling for 2 min. The mixture was then cooled to 4° C. and the precipitated protein was pelleted. Cyclic AMP content in the supernatant was then quantified using an enzyme immunoassay kit (Pharmacia-Amersham, N.J.) according to the instructions of the manufacturer.
(In general: cAMP levels reflect the balance of adenylyl cyclase and phosphodiesterase activity.)

Experiment [2] relates to platelets. As to the kind of experiment: Platelet aggregation (aggregometer). In kind it is cell-based, human. As to conditions: for IC50: Homo sapiens, Platelet. The protocol: Platelet aggregation profiling is a standard methodology, generally performed with an instrument adapted for that express purpose, for example, a Platelet Aggregation Profiler (BioData, Horsham, Pa.). The assays can generally be performed according to the instructions of the manufacturer. As exemplary conditions, 400 μl of PRP are incubated with inhibitor for 15 minutes at room temperature. The sample is then incubated for 3 minutes at 37° C. in the Platelet Aggregation Profiler. The instrument is calibrated with platelet poor plasma serving as a blank. A baseline tracing is established by monitoring the light transmittance of PRP being stirred at 1200 rpm. Aggregation is initiated by the addition of SFLLR (200 μM) and the percent of platelet aggregation is measured by the change in light transmittance for 6 minutes following addition of SFLLR.

The subject of experiment [3] is platelets. As to the kind of experiment: F-actin assembly (FITC-phalloidin, flow cytometry). As to conditions: agonist SFLLR. In kind it is cell-based, human. The text has this:
To determine whether or not the effects of the pyridazinone compound were limited to inhibition of alpha-granule secretion, the ability of the compound to inhibit F-actin assembly and αIIbβ3 activation was examined. F-actin assembly was detected using FITC-phalloidin and quantified by flow cytometry (Winokur et al., 1995, Blood 85, 1796-804; Oda et al., 1992, Blood 79, 920-7).

Experiment [4] deals with platelet protein palmitoylation. As to the kind of experiment: Incorporation of [3H]-palmitate into platelet proteins. In kind it is cell-based. The note with it: 100 μM compound; 20 μM or 200 μM SFLLRN. The protocol: Platelets were labeled with [^3H]-palmitate for 2 hours in the absence (lanes 1, 2, and 3) or presence (lanes 4, 5, and 6) of 100 μM JF081204{5C} for 2 hours. Labeled platelets were then incubated with 0 μM ([…]), 20 μM (lanes 2 and 5), or 200 μM SFLLRN (lanes 3 and 6). Platelet samples were lysed, separated by SDS-PAGE, Western blotted, and visualized with a tritium imager screen (Panel a). The activation of platelets by SFLLRN led to an increase incorporation of [^3H]-palmitate into platelet proteins, whereas the presence of JF081204{5C} inhibited this activation-dependent [^3H]-palmitate incorporation (Panel b). Western blot membrane from panel (a) was stained with Ponceau S to visualize proteins in the platelet lysates.
The incorporation of [^3H]-palmitate into platelet intracellular proteins was examined to determine the effect of JF081204{5C} on platelet protein palmitoylation. […] Exposure of platelets to either 20 μM or 200 μM SFLLRN increased the intensity of the labeling. Incubation of platelets with 100 μM of JF081204{5C} inhibited the increase in [^3H]-palmitate incorporation induced by either 20 μM or 200 μM SFLLRN.

Molecules are shown by their SMILES. Read-outs that look alike come from different tables or passages of the source.

`CC1CC(=O)NN=C1c1ccc(N)c([N+](=O)[O-])c1` (stereo not drawn) [6-(4-Amino-3-nitro-phenyl)-5-methyl-4,5-dihydro-2H-pyridazin-3-one]: in the experiment on platelet GPIIbIIIa, the “SFLLR-induced αIIbβ3 activation” value is listed as “inhibited”. Further, the “Effect on PGE1-stimulated cAMP levels in platelets” value in experiment [1] is reported as “augments”; in experiment [1] (listed as Pyridazinone compound), “augment”. Besides, in the experiment with platelets [2] (agonist SFLLR), the SFLLR-induced platelet aggregation result is listed as “potent inhibitor”. Further, the “SFLLR-induced F-actin assembly / cytoskeleton rearrangement” value in the experiment on platelets [3] is listed as “interferes”.
What is called IC50 is the midpoint of a concentration-inhibition curve. In the case of `CCCCCn1c2c(c(=N)c3ccccc31)CCC2` [JF081204{5C}], the IC50 was 400 µM with platelets [2] (agonist U-46619, read-out: IC50 Platelet Aggregation Induced by U-46619); > 200 µM in the experiment on platelets [2] (agonist Collagen, read-out: IC50 Platelet Aggregation Induced by Collagen); 5 µM in the experiment on platelets [2] (agonist Epinephrine, read-out: IC50 Platelet Aggregation Induced by Epinephrine); 2 µM in the experiment on platelets [2] (agonist SFLLRN, read-out: IC50 Platelet Aggregation Induced by SFLLRN); < 5 µM with platelets [2] (agonists SFLLRN, epinephrine, read-out: IC50 SFLLRN- and epinephrine-induced platelet aggregation). Moreover, the “Inhibition of U46619- and collagen-induced platelet aggregation” value in the experiment on platelets [2] (agonists U46619, collagen) was “not effective”. For the same molecule, the “Increase in [3H]-palmitate incorporation induced by SFLLRN” value in experiment [4] is on record as “inhibited”.

These data come from patent publication US20070060605A1, “Compositions and methods for inhibiting platelet activation and thrombosis” (priority 2001, published 2007).
